# Results published in patent publication US20100160297A1, “COMPOUNDS FOR PIM KINASE INHIBITION AND FOR TREATING MALIGNANCY” (Amnestix, Inc., priority 2008, published 2010).
# Entries after “also recorded” stand apart in the source; their conditions may differ. Structures can show the parent of a compound that is named as a salt.
# System: not given
# Test: not given
# Conditions: not given
row,melting point,Compound
1,219 to 221 °C,"COc1ccc2c(Cl)nccc2c1S(=O)(=O)N1CCCNCC1 (as salt: hydrochloride) [1-chloro-5-([1,4]diazepane-1-sulfonyl)-6-methoxy-isoquinoline]"

# Biological target: T1, PIM-1 kinase (Homo sapiens, UniProt P11309)
# T1 construct: purchased Cell Signaling Technology Inc., Boston, USA
# Test: In vitro assay for PIM-1 kinase inhibition (PIM-1 Kinase Assay Kit, colorimetric ELISA)
# Type: biochemical
# Conditions: test compound 100 μM final concentration; normalized to positive control (no test compound) = 100% activity; 1.5 or 2.5 ng PIM-1 kinase, 200 μM ATP
# Protocol: (§1) In vitro assays of PIM-1 kinase activity (1.5 ng) in the presence of increasing concentrations of the compounds A, B, C or D were performed as described within example 5. An assay without additional test compound served as positive control for the assay (pos) and an assay without PIM-1 kinase served as negative assay (neg). […] Each assay result was normalized in comparison to the positive control which was defined as 100% activity.
# as §1, with “(2.5” for “(1.5”, “compound E” for “compounds A, B, C or D”
# The in vitro assay for PIM-1 kinase inhibition was performed using the PIM-1 Kinase Assay Kit (Cell Signaling Technology Inc., Boston, USA) according to the manufacture's instruction. Briefly, 1.5 or 2.5 ng PIM-1 kinase has been dissolved in 50 μl assay buffer (25 mM Tris-Hcl (pH 7.5), 10 mM MgCl2, 5 mM beta-glycerophosphate, 0.1 mM Na3VO4, 2 mM DTT, 200 μM ATP, and 1.5 μM peptide substrate) and test compound has been added to a final concentration in a range of 0.1 to 100 μM. After 30 minutes incubation at ambient temperature the reaction was stopped by adding 50 μl Stop buffer (50 mM EDTA, pH 8) per reaction. An aliquot of 25 μl per reaction was diluted each by 75 μl water and transferred to a 96-well streptavidin-coated plate. After 60 minutes incubation and three times washing with PBS, 100 μl/well primary antibody (Phospho-Bad (Ser112) antibody, 1:1000 diluted in PBS) was added. After further 2 h incubation and three times washing with PBS, an usual colorimetric ELISA assay was performed using a HRP labeled second antibody according to the manufacture's instructions. A PIM kinase reaction without addition of a test compound served as positive control (pos) and an assay without PIM kinase served as negative control (neg). […] The PIM-1 kinase inhibition of the test compounds (1-chloro-5-([1,4]diazepane-1-sulfonyl)-8-propoxy-isoquinoline (compound A), 1-chloro-5-(piperazin-1-sulfonyl)-8-methoxy-isoquinoline (compound B), 1-methyl-5-([1,4]diazepane-1-sulfonyl)-8-methoxy-isoquinoline (compound C), and 1-chloro-5-([1,4]diazepane-1-sulfonyl)-6-methoxy-isoquinoline (compound D)) was measured in a first series of assays, and the one of the compound 5-([1,4]diazepane-1-sulfonyl)-8-methoxy-isoquinoline (compound E) was measured in a second series of assays. Within each series of assays the measured PIM-1 kinase activity was normalized in comparison to the positive control (pos) which was defined as 100% activity. […] The table below summarizes the percentage of the remaining PIM-1 kinase activity in the presence of the test compounds in a final concentration of 100 μM.
# T1 sequence (P11309 whole entry): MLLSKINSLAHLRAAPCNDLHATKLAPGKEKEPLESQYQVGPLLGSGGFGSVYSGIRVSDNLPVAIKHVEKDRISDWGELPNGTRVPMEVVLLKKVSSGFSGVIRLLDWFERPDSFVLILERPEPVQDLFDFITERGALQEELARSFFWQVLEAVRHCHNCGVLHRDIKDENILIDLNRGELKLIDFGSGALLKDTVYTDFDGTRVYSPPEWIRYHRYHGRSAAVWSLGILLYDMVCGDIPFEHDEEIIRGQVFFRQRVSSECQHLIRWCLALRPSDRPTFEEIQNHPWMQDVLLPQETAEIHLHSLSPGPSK
row,% remaining PIM-1 kinase activity,Compound
1,17%,"COc1ccc(S(=O)(=O)N2CCCNCC2)c2ccnc(Cl)c12 [G, 1-chloro-8-methoxy-Fasudil, reference compound]"

# Same assay, conditions: test compound 0.1 to 100 μM; FIG. 1 (1.5 ng PIM-1) and FIG. 2 (2.5 ng PIM-1)
row,Compound,PIM-1 kinase inhibition (result in words)
1,"COc1ccc(S(=O)(=O)N2CCNCC2)c2ccnc(Cl)c12 [B, 1-chloro-5-(piperazin-1-sulfonyl)-8-methoxy-isoquinoline]",potent PIM inhibitory effect; also recorded: potent PIM-1 kinase inhibitors
2,"COc1ccc(S(=O)(=O)N2CCCNCC2)c2ccnc(C)c12 [C, 1-methyl-5-([1,4]diazepane-1-sulfonyl)-8-methoxy-isoquinoline]",potent PIM inhibitory effect; also recorded: potent PIM-1 kinase inhibitors
3,"CCCOc1ccc(S(=O)(=O)N2CCCNCC2)c2ccnc(Cl)c12 [Compound A, 1-chloro-5-([1,4]diazepane-1-sulfonyl)-8-propoxy-isoquinoline]",potent PIM inhibitory effect; also recorded: potent PIM-1 kinase inhibitors
4,"COc1ccc2c(Cl)nccc2c1S(=O)(=O)N1CCCNCC1 [D, 1-chloro-5-([1,4]diazepane-1-sulfonyl)-6-methoxy-isoquinoline]",potent PIM inhibitory effect; also recorded: potent PIM-1 kinase inhibitors
5,"COc1ccc(S(=O)(=O)N2CCCNCC2)c2ccncc12 [E, 5-([1,4]diazepane-1-sulfonyl)-8-methoxy-isoquinoline]",at most a moderate PIM-1 kinase inhibition; also recorded: only weak PIM inhibitory effect
6,"O=S(=O)(c1cccc2cnccc12)N1CCCNCC1 [F, Fasudil, reference compound]",at the most very weak PIM-1 inhibition
7,"COc1ccc(S(=O)(=O)N2CCCNCC2)c2ccnc(Cl)c12 [G, 1-chloro-8-methoxy-Fasudil, reference compound]",very potent PIM-1 inhibitor
